The structures appear in SMILES notation.

Usually melting point stands for the temperature, or range, at which the solid turns liquid. In the case of `CCC[C@H](CC(=O)NO)C(=O)N[C@H](C(=O)NC)C(C)(C)C`, the melting point was 200 °C.

For `CCCC[C@H](CC(=O)NO)C(=O)N[C@H](C(=O)N(C)C)C(C)(C)C`, the melting point was 165 to 166 °C.
